Experimental findings from patent US8901307B2, “Chemical compounds 251” (AstraZeneca AB, priority 2008, dated 2014) are described below.

One assay deals with T1, human His-PIM1 [2-313] (Homo sapiens, UniProt P11309).
T1 construct: purified human His-PIM1 [2-313] enzyme; His (N); purchased University of Dundee, Scotland; host or cells: baculovirus system
Briefly: PIM1 in-vitro mobility shift assay (Caliper LC3000, FL-Ahx-Bad phosphorylation). The class given is biochemical. As to conditions: 1.5 h; percent inhibition at 0.3 uM compound; read-out: PIM1 % I at 0.3 uM. The source says:
PIM1 In-Vitro Mobility Shift Assay
One may determine the activity of purified human His-PIM1 [2-313] enzyme in-vitro using a mobility shift assay on a Caliper LC3000 reader (Caliper, Mass.), which measures fluorescence of a phosphorylated and unphosphorylated FL-Ahx-Bad (FITC-(AHX)RSRHSSYPAGT-COOH, Primm 200606-00289, Primm Biotech, Mass.) and calculates a ratiometric value to determine percent turnover. One may express PIM1 (University of Dundee, Scotland) in baculovirus system with a typical yield of >85% purity.
(§1) One determines phosphorylation of the FL-Ahx-Bad in the presence and absence of the compound of interest. One preincubates 5 µl of Enzyme/Substrate/adenosine triphosphate (ATP) mix consisting of 2.4 nM PIM1, 3.6 uM FL-Ahx-Bad, and 240 uM ATP in 1.2× buffer with 2 ul of compound for 20 minutes at 25° C. One initiates reactions with 5 ul of Metal mix consisting of 24 mM MgCl2 in 1.2× buffer and incubated at 25° C. for 90 minutes and stops the reactions by addition of 5 ul of Stop mix consisting of 100 mM HEPES, 121 mM ethylenediamine tetraacetic acid, 0.8% Coatin Reagent 3 (Caliper, Mass.), and 0.01% Tween. One detects phosphorylated and unphosphorylated substrate by a Caliper LC3000 reader (Caliper, Mass.) in the presence of separation buffer consisting of 100 mM HEPES, 16 mM ethylenediamine tetraacetic acid, 0.1% Coatin Reagent 3 (Caliper, Mass.), 0.015% Brij-35, 5% DMSO, and 5.6 mM MgCl2. One may use the following separation conditions for a Caliper LC3000: −1.0 PSI, −2000 V upstream voltage, −400 V downstream voltage, 0.2 second sample sip, 45 second post sip, 10% laser strength.
The table 1 below provides the percent inhibition of PIM1 at 0.3 micromolar for Examples provided herein. Several examples were tested more than once. Variations in the experimental outcomes, negative values, or values over 100% inhibition are presumably due to experimental error inherent in the assay.

For the next assay, the target named is T2, human His-PIM2 [23-299] (Homo sapiens, UniProt Q9P1W9).
T2 construct: purified human His-PIM2 [23-299] enzyme; His (N); host or cells: E. coli
T2 sequence (Q9P1W9 23-299): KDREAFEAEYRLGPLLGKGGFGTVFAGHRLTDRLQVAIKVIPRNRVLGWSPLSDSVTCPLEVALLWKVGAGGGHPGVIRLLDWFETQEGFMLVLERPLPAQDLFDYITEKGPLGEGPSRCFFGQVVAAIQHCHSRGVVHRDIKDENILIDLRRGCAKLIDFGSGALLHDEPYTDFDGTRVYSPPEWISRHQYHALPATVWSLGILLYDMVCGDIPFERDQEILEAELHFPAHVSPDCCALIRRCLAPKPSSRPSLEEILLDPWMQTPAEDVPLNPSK
Briefly: PIM2 in-vitro mobility shift assay (Caliper LC3000, FL-Ahx-Bad phosphorylation). It counts as biochemical. To be noted: 1.5 h; percent inhibition at 0.3 uM compound; read-out: PIM2 % I at 0.3 uM.
Source text: PIM2 In-Vitro Mobility Shift Assay
One may determine the activity of purified human His-PIM2 [23-299] enzyme in-vitro using a mobility shift assay on a Caliper LC3000 reader (Caliper, Mass.), which measures fluorescence of a phosphorylated and unphosphorylated FL-Ahx-Bad (FITC-(AHX)RSRHSSYPAGT-COOH, Primm 200606-00289, Primm Biotech, Mass.) and calculates a ratiometric value to determine percent turnover. One may express PIM2 (produced at AstraZeneca, R&D Boston) in E. coli cells with a typical yield of >90% purity.
as §1, with “5 uL” for “5 µl”, “and 12” for “and 240”, “5 uL” for “5 ul”, “and incubates” for “and incubated”, “90 minutes. One” for “90 minutes and”, “stops” for “stops the”

Structures are written as SMILES. Where a name gives a salt, the structure may show the parent alone.

T1 sequence (P11309 2-313): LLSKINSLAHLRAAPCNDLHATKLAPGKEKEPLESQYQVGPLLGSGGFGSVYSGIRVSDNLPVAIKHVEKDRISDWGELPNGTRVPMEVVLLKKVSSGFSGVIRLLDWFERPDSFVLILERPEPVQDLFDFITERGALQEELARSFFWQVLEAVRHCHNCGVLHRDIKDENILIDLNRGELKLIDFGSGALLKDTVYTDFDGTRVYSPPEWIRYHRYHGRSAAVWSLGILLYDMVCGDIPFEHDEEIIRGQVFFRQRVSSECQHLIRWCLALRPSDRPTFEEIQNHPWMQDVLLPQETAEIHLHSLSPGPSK

As to `CCOc1cccc(/C=C2\SC(=O)NC2=O)c1N1CC[C@H](N)C1` [Example 122Q, (S,Z)-5-(2-(3-aminopyrrolidin-1-yl)-3-ethoxybenzylidene)thiazolidine-2,4-dione hydrochloride], the inhibition at 0.3 µM at human His-PIM1 [2-313] and at human His-PIM2 [23-299] was more than 95% throughout.
Turning to `COc1cc(/C=C2\SC(=O)NC2=O)c(N2CCC(NCCO)C2)cc1OC` (stereo not drawn) [Example 132, (Z)-5-(2-(3-(2-hydroxyethylamino)pyrrolidin-1-yl)-4,5-dimethoxybenzylidene)thiazolidine-2,4-dione], the inhibition at 0.3 µM on human His-PIM1 [2-313] worked out at 93%; on human His-PIM2 [23-299] it was 88.1%.
In the case of `COc1cc(/C=C2\SC(=O)NC2=O)c(N2CC[C@H](N(C)C)C2)cc1OC` [Example 40, (S,Z)-5-(2-(3-(dimethylamino)pyrrolidin-1-yl)-4,5-dimethoxybenzylidene)thiazolidine-2,4-dione], the inhibition at 0.3 µM at human His-PIM1 [2-313] was more than 95%; on human His-PIM2 [23-299], 89.8%.
For `O=C1NC(=O)/C(=C/c2cc(C(F)(F)F)cc(Cl)c2N2CCN(c3ccc(Cl)cc3F)CC2)S1` [Example 15], the inhibition at 0.3 µM is 12.9% at human His-PIM1 [2-313] and less than 5% on human His-PIM2 [23-299].
Turning to `CN(C)[C@H]1CCN(c2c(Br)cccc2/C=C2\SC(=O)NC2=O)C1` [Example 33, (S,Z)-5-(3-bromo-2-(3-(dimethylamino)pyrrolidin-1-yl)benzylidene)thiazolidine-2,4-dione hydrochloride], the inhibition at 0.3 µM on human His-PIM1 [2-313] and on human His-PIM2 [23-299] was more than 95% throughout.
In the case of `CN(C)C1CCN(c2c(Cl)cc(C(F)(F)F)cc2/C=C2\SC(=O)NC2=O)CC1` [Example 24], the inhibition at 0.3 µM at human His-PIM1 [2-313] is more than 95%; on human His-PIM2 [23-299], 44.3%.
The like results for `CN(C)[C@H]1CCN(c2ccc(C(F)(F)F)cc2C=C2SC(=O)NC2=O)C1` [Example 84H, (S)-5-(2-(3-(dimethylamino)pyrrolidin-1-yl)-5-(trifluoromethyl)benzylidene)thiazolidine-2,4-dione] were, in that order, more than 95% and 67%.
For `O=C1NC(=O)/C(=C/c2ccccc2N2CCNCC2)S1` [Example 115, (5Z)-5-(2-piperazin-1-ylbenzylidene)-1,3-thiazolidine-2,4-dione hydrochloride] the same measures were 93.3% and 76.1%.
For `COc1cc(/C=C2\SC(=O)NC2=O)c(N2CC[C@@H](N)C2)cc1OC` [Example 100, (R,Z)-5-(2-(3-aminopyrrolidin-1-yl)-4,5-dimethoxybenzylidene)thiazolidine-2,4-dione hydrochloride] the same measures were 93% and 93.9%.
Regarding `O=C1NC(=O)/C(=C/c2cc(C(F)(F)F)cc(Cl)c2N2CCN(CCO)CC2)S1` [Example 28], the inhibition at 0.3 µM at human His-PIM1 [2-313] was found to be 90%; at human His-PIM2 [23-299], 27.4%.
The like results for `NCCCC(=O)N1CCCN(c2ccccc2/C=C2\SC(=O)NC2=O)CC1` [Example 104, (Z)-5-(2-(4-(4-aminobutanoyl)-1,4-diazepan-1-yl)benzylidene)thiazolidine-2,4-dione hydrochloride] were, in that order, more than 95% and 92.4%.
For `CCN(CC)CCOc1ccccc1/C=C1\SC(=O)NC1=O` [Example 64, (Z)-5-(2-(2-(diethylamino)ethoxy)benzylidene)thiazolidine-2,4-dione], the figures for the inhibition at 0.3 µM on human His-PIM1 [2-313] and on human His-PIM2 [23-299] were 86.5% and 25.7%, respectively.
For `CN(C)C(=O)CCC(=O)N[C@H]1CCN(c2c(Cl)cccc2/C=C2\SC(=O)NC2=O)C1` [Example 144] the same measures were 63.2% and 21.2%.
Turning to `O=C1NC(=O)/C(=C/c2ccccc2N2CCN(C(=O)C3CCNCC3)CC2)S1` [Example 91, (Z)-5-(2-(4-(piperidine-4-carbonyl)piperazin-1-yl)benzylidene)thiazolidine-2,4-dione], the inhibition at 0.3 µM on human His-PIM1 [2-313] came out at 6.6%; on human His-PIM2 [23-299], 16.4%.
For `CNCCNC1CCN(c2cc(OC)c(OC)cc2/C=C2\SC(=O)NC2=O)C1` (stereo not drawn) [Example 113, (Z)-5-(4,5-dimethoxy-2-(3-(2-(methylamino)ethylamino)pyrrolidin-1-yl)benzylidene)thiazolidine-2,4-dione hydrochloride] the same measures were more than 95% and more than 95%.
For `COc1cc(/C=C2\SC(=O)NC2=O)c(N2CCC(O)CC2)cc1OC` [Example 42, (5Z)-5-[2-(4-hydroxypiperidine-1-yl)-4,5-dimethoxybenzylidene]-1,3-thiazolidine-2,4-dione] the same measures were 58.8% and 23.3%.
As for `NC(=O)c1ccc(N2CCC[C@@H](N)C2)c(/C=C2\SC(=O)NC2=O)c1` [Example 122AE, (R,Z)-4-(3-aminopiperidin-1-yl)-3-((2,4-dioxothiazolidin-5-ylidene)methyl)benzamide hydrochloride], the inhibition at 0.3 µM on human His-PIM1 [2-313] and at human His-PIM2 [23-299] was more than 95% throughout.
With `O=C1NC(=O)/C(=C/c2n[nH]c3ccccc23)S1` [Example 68, (Z)-5-((1H-indazol-3-yl)methylene)thiazolidine-2,4-dione], the inhibition at 0.3 µM on human His-PIM1 [2-313] stood at 41.9%; at human His-PIM2 [23-299], 9%.
For `C[C@@H]1CN(c2c(Cl)cccc2/C=C2\SC(=O)NC2=O)C[C@H](C)N1` [Example 37, (Z)-5-(3-chloro-2-((3S,5R)-3,5-dimethylpiperazin-1-yl)benzylidene)thiazolidine-2,4-dione] the same measures were 89.7% and 69.4%.
For the compound `CN(C)[C@H]1CCN(c2ccc(Cl)cc2C=C2SC(=O)NC2=O)C1` [Example 84I, (S)-5-(5-chloro-2-(3-(dimethylamino)pyrrolidin-1-yl)benzylidene)thiazolidine-2,4-dione], the inhibition at 0.3 µM is more than 95% at human His-PIM1 [2-313] and 82.7% at human His-PIM2 [23-299].
For `CN1CCN(Cc2cccc(/C=C3\SC(=O)NC3=O)c2)CC1` [Example 84E, (Z)-5-(3-((4-methylpiperazin-1-yl)methyl)benzylidene)thiazolidine-2,4-dione] the same measures were 11.7% and 6.1%.
For `NCCCCC(=O)N1CCCN(c2ccccc2/C=C2\SC(=O)NC2=O)CC1` [Example 103, (Z)-5-(2-(4-(5-aminopentanoyl)-1,4-diazepan-1-yl)benzylidene)thiazolidine-2,4-dione hydrochloride], the inhibition at 0.3 µM was more than 95% at human His-PIM1 [2-313] and 88.7% at human His-PIM2 [23-299].
As to `NS(=O)(=O)CCCC(=O)N[C@H]1CCN(c2c(Cl)cccc2/C=C2\SC(=O)NC2=O)C1` [Example 143], the inhibition at 0.3 µM was determined as 85.9% on human His-PIM1 [2-313] and 49.8% on human His-PIM2 [23-299].
For `CN(C)CCN(C)c1ccccc1/C=C1\SC(=O)NC1=O` [Example 47, (5Z)-5-{2-[[2-(dimethylamino)ethyl](methyl)amino]benzylidene}-1,3-thiazolidine-2,4-dione] the same measures were 50% and 26.3%.
